Structures are written as SMILES. Non-standard residues stand in square brackets, D forms with d. Residues, ends and D or L forms follow the SMILES beside them. *: point of attachment. Phenylacetyl(2,3,4,5,6-F5) = O=C(Cc1c(F)c(F)c(F)c(F)c1F)*; Phe(4-Cl) = N[C@@H](Cc1ccc(Cl)cc1)C(=O)O; hArg = N=C(N)NCCCC[C@H](N)C(=O)O; 12Ado = NCCCCCCCCCCCC(=O)O; Nle = CCCC[C@H](N)C(=O)O; Abu = CC[C@H](N)C(=O)O; PhAc = O=C(Cc1ccccc1)*; Aoc = NCCCCCCCC(=O)O

Here are results for two molecules from patent publication US20210395327A1, “Growth Hormone-Releasing Hormone Antagonists and Uses Thereof” (United States Government As Represented By The Department …, priority 2019, published 2021).

Assay [1] concerns KATOIII stomach cancer cells. The assay is described as follows: In vitro cell viability, KATOIII. As to conditions: antagonist 5 μM for 72 h, cell proliferation assay; MIA602 = 1. Format: cell-based, human. Here is the method: The inhibitory effects of the various synthesized GHRH antagonists were tested in cell proliferation assays in various human cancer cell lines including stomach cancer (KATOIII, N87), colon cancer (HT-29), urothelial cancer (J82, RT4), pancreatic cancer (PANC-1, CFPAC-1), prostatic cancer (PC3), breast cancer (MX-1, HCC1806), ovarian cancer (SK-OV-3, OVCAR-3) and lung cancer (HCC827, H460).
Cell culture. Human cancer cell lines including pancreatic (PANC-1 and CFPAC-1), lung (HCC827 and H460), stomach (NCI-N87 and KATOIII), urothelial (J82, RT4), prostatic (PC3), breast (MX-1 and HCC 1806), colorectal (HT-29), and ovarian (SK-OV-3 and OVCAR-3) were obtained from the American Type Culture Collection (ATCC) and cultured at 37° C. in a humidified 95% air/5% CO2 atmosphere in the medium recommended by ATCC.
In vitro cell viability. Cell viability was analyzed as follows: cancer cells including pancreatic (PANC-1 and CFPAC-1), lung (HCC827 and H460), stomach (NCI-N87 and KATOIII), urothelial (J82, RT4), prostatic (PC3) and breast (MX-1 and HCC 1806), colorectal (HT-29) and ovarian (SK-OV-3 and OVCAR-3) were grown on 96 well plates to ˜60% confluence, the cells were starved for 24 h in culture medium containing 0.5% FBS. Cells were then treated with GHRH antagonists MIA602 AVR compounds at concentrations of 1, 2.5 or 5 μM, or vehicle (0.1% DMSO) in quintuplicates for 72 hours. The medium was replaced every 48 hours. Cell viability was measured using CellTiter 96 aqueous one solution kit (Promega). Inhibitory effects of tested AVR compounds in comparison to that of MIA602 are presented as inhibitory potency.
Inhibitory effects of selected AVR compounds in comparison to that of MIA602 are presented as inhibitory potency (e.g., percentage of inhibition). […] The cell lines tested including lung cancer HCC827 (FIG. 2A), pancreatic cancer CFPAC-1 (FIG. 2B), stomach cancer N87 (FIG. 2C), colon cancer HT-29 (FIG. 2D), breast cancers MX-1 and HCC1806 (FIGS. 2 E, F). Based on the results of cell proliferation assay after cancer cells were treated with antagonist at concentration of 5 μM for 72H, the relative inhibitory potency of AVR antagonists in comparison to MIA-602 is summarized in Table 3 A and B. Over 60 AVR compounds were tested in 12 cancer cell lines.

Assay [2] has as its target T1, membrane GHRH-receptors on human anterior pituitary cells (Homo sapiens, UniProt Q02643).
T1 construct: Human pituitary was purchased from the National Hormone and Peptide Program; tissue National Hormone and Peptide Program; host or cells: human pituitary (membrane fractions)
T1 sequence (Q02643 23-423): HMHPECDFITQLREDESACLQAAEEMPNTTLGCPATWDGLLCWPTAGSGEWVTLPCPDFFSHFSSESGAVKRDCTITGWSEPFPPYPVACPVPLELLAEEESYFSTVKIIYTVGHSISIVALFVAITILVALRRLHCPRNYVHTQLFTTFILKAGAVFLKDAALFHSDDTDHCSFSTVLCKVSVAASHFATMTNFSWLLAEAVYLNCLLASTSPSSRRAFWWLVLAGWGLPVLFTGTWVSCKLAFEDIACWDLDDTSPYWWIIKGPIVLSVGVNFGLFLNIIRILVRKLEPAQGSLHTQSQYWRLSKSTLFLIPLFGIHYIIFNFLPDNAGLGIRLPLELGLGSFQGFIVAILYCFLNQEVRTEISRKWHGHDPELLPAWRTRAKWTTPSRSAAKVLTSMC
The experiment in a line: Receptor binding, displacement of 125I-[His1,Nle27]-hGH-RH(1-32)NH2 on human pituitary membranes. Particulars: membrane receptors on human anterior pituitary cells; mean of two to three determinations; read-out: IC50. Here is the method:
Receptor binding affinities in vitro. Preparation of human pituitary membrane fractions and receptor binding of analogs of GH-RH were performed (Halmos G, Rekasi Z, Szoke B, Schally A V. (1993) Receptor 3:87-97). Human pituitary was purchased from the National Hormone and Peptide Program. […] Relative affinities compared to hGH-RH(1-29)NH2 were calculated as the ratio of IC50 (dose causing 50% inhibition of specific binding to receptors) of the tested peptides to the IC50 of hGH-RH(1-29)NH2. The values were calculated from technical duplicate tubes.
Nineteen new AVR analogs of GHRH were tested in the receptor binding assay. Table 6 presents the IC50 values of GHRH antagonists to membrane GHRH-receptors binding on human anterior pituitary cells.

Take `CCCC[C@H](NC(=O)[C@@H](NC(=O)[C@H](CC(=O)O)NC(=O)[C@H](CCC(N)=O)NC(=O)[C@H](CC(C)C)NC(=O)[C@H](CC(C)C)NC(=O)[C@H](CCCCN)NC(=O)[C@H](CCCNC(=N)N)NC(=O)[C@H](C)NC(=O)[C@H](CO)NC(=O)[C@H](CC(C)C)NC(=O)[C@H](CCC(N)=O)NC(=O)[C@H](CC)NC(=O)[C@H](CC(C)C)NC(=O)[C@@H](NC(=O)[C@H](CCCCN)NC(=O)[C@H](CCCNC(=N)N)NC(=O)[C@H](Cc1ccc(OC)cc1)NC(=O)[C@H](CCCCNC(=N)N)NC(=O)[C@H](CC(N)=O)NC(=O)[C@@H](NC(=O)[C@H](Cc1ccc(Cl)cc1)NC(=O)[C@@H](NC(=O)[C@H](C)NC(=O)[C@H](CC(=O)O)NC(=O)[C@@H](CCCNC(=N)N)NC(=O)[C@H](Cc1ccc(O)cc1)NC(=O)CCCCCCCCCCCNC(=O)Cc1c(F)c(F)c(F)c(F)c1F)[C@@H](C)CC)[C@@H](C)O)C(C)C)[C@@H](C)CC)C(=O)N[C@H](CCCNC(=N)N)C(=O)N[C@@H](CCCCNC(=N)N)C(=O)NCCCCCCCC(=O)NC` [AVR-322, 5FPhAC-Ada-Tyr-DArg-Asp-Ala-Ile-Cpa-Thr-Asn-Har-Tyr(Me)-Arg-Lys-Val-Leu-Abu-Gln-Leu-Ser-Ala-Arg-Lys-Leu-Leu-Gln-Asp-Ile-Nle-DArg-Har-Aoc-NHCH3] ({Phenylacetyl(2,3,4,5,6-F5)-12Ado}-Y[dR]DAI[Phe(4-Cl)]TN[hArg]Y(Me)RKVL[Abu]QLSARKLLQDI[Nle][dR][hArg][Aoc]-NHMe): the “relative inhibitory potency in comparison to MIA-602, Stomach KATOIII” value in assay [1] was 1.296. Moreover, the IC50 in assay [2] was found to be 0.25 nM.
For the molecule `CCCC[C@H](NC(=O)[C@@H](NC(=O)[C@H](CC(=O)O)NC(=O)[C@H](CCC(N)=O)NC(=O)[C@H](CC(C)C)NC(=O)[C@H](CC(C)C)NC(=O)[C@H](CCCCN)NC(=O)[C@H](CCCNC(=N)N)NC(=O)[C@H](C)NC(=O)[C@H](CO)NC(=O)[C@H](CC(C)C)NC(=O)[C@H](CCC(N)=O)NC(=O)[C@H](CC)NC(=O)[C@H](CC(C)C)NC(=O)[C@@H](NC(=O)[C@H](CCCCN)NC(=O)[C@H](CCCNC(=N)N)NC(=O)[C@H](Cc1ccc(OC)cc1)NC(=O)[C@H](CCCCNC(=N)N)NC(=O)[C@H](CC(N)=O)NC(=O)[C@@H](NC(=O)[C@H](Cc1ccc(Cl)cc1)NC(=O)[C@@H](NC(=O)[C@H](C)NC(=O)[C@H](CC(=O)O)NC(=O)[C@@H](CCCNC(=N)N)NC(=O)[C@H](Cc1ccc(O)cc1)NC(=O)CCCCCCCCCCCNC(=O)Cc1ccccc1)[C@@H](C)CC)[C@@H](C)O)C(C)C)[C@@H](C)CC)C(=O)N[C@H](CCCNC(=N)N)C(=O)N[C@@H](CCCCNC(=N)N)C(=O)NCCCCCCCCCCCC(N)=O` [AVR-332] ({PhAc-12Ado}-Y[dR]DAI[Phe(4-Cl)]TN[hArg]Y(Me)RKVL[Abu]QLSARKLLQDI[Nle][dR][hArg][12Ado]-NH2), in assay [1], the “relative inhibitory potency in comparison to MIA-602, Stomach KATOIII” value turned out to be 1.643. Also, the IC50 in assay [2] was 0.34 nM.
